Measurements reported in publication PMC6150212, “New Biflavonoids with α-Glucosidase and Pancreatic Lipase Inhibitory Activities from Boesenbergia rotunda” (Molecules : A Journal of Synthetic Chemistry and Natural …, 2017).
Read-outs that look alike come from different tables or passages of the source.

Tests used:
[1] = tested on: Yeast α-glucosidase enzyme; experiment: Kinetic study of α-glucosidase inhibition (Lineweaver-Burk and secondary plots); format: biochemical; conditions: for Mode of inhibition of α-glucosidase / Km: Lineweaver-Burk plot; for Ki: from secondary plot, read-out: α-Glucosidase inhibition constant (Ki); for Km: PNPG substrate, read-out: Michaelis-Menten constant, Km (x-axis intersection), α-glucosidase
Experimental: (§1) The assay was based on the capacity of the sample to inhibit the hydrolysis of p-nitrophenyl-α-D-glucoside (PNPG) by α-glucosidase to release p-nitrophenol (PNP), a yellow color agent that can be monitored at 405 nm. Briefly, 10 μL of sample solution and 40 μL of 0.1 unit/mL α-glucosidase were incubated at 37 °C for 10 min. Then, 50 μL of 2 mM PNPG was added, and the mixture was further incubated at 37 °C for 20 min. One hundred microliters of 1 mM Na2CO3 was added, and the progress of the enzyme inhibition was monitored by measuring the absorbance at 405 nm. Acarbose was used as a positive control.
(§2) An enzyme kinetic analysis was performed based on the α-glucosidase or lipase inhibition assay as described above. The PNPG concentrations varied from 1 to 4 mM, and the 4-MUO concentrations varied from 0.063 to 1 mM in the absence or presence of the test compounds for kinetic assays of α-glucosidase and lipase, respectively. The inhibition mode was determined by double-reciprocal Lineweaver-Burk plot (1/V vs. 1/[S]). In order to estimate the Ki value, slopes of double-reciprocal lines were used to construct a secondary plot, and Ki was calculated from the line equation of the plot.

[2] = target: Yeast α-glucosidase enzyme; experiment: α-Glucosidase inhibitory activity assay (PNPG hydrolysis); format: biochemical
Experimental: (§3) Optical rotations were obtained with a Perkin-Elmer 341 polarimeter (Boston, MA, USA). UV spectra were measured on a Milton Roy Spectronic 300 Array spectrophotometer, and IR was recorded on a Perkin-Elmer FT-IR 1760x spectrophotometer (Boston, MA, USA). High-resolution electrospray ionization mass spectra (HR-ESI-MS) were recorded with a Bruker micro TOF mass spectrometer (Billerica, MA, USA). NMR spectra were obtained with a Bruker Avance DPX-300 FT-NMR spectrometer (Billerica, MA, USA). Vacuum liquid chromatography (VLC) and column chromatography (CC) were performed on silica gel 60 (Merck, 70–230 µm, Darmstadt, Germany), silica gel 60 (Merck, […]) or Sephadex LH-20 (Pharmacia, Piscataway, NJ, USA). Yeast α-glucosidase enzyme, p-nitrophenol-α-D-glucopyranoside, pancreatic lipase, and 4-methylumbelliferyl oleate were purchased from Sigma Chemical, Inc. (St. Louis, MO, USA), and acarbose from Fluka Chemical (Buchs, Switzerland).
as §1

[3] = target: T1, lipase from porcine pancreas (Type II) (Sus scrofa, UniProt P00591); experiment: Lipase inhibitory activity assay (4MUO substrate); format: biochemical
T1 construct: lipase from porcine pancreas (Type II); purchased Sigma Chemical, Inc. (St. Louis, MO, USA); host or cells: porcine pancreas
T1 sequence (P00591 1-450): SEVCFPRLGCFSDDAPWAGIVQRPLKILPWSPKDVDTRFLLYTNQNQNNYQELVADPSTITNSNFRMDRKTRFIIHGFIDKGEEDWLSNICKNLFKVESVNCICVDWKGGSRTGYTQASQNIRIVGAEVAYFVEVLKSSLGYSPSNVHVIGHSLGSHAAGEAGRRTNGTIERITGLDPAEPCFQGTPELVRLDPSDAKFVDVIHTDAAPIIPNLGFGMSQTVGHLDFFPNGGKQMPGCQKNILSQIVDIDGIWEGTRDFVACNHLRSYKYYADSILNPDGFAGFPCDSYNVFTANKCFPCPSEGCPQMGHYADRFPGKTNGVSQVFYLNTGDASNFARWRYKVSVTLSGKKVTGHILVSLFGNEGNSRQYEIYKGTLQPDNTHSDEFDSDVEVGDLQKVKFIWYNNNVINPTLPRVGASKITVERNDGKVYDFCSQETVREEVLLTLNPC
Experimental: as §3
(§4) The lipase inhibitory activity was assessed by measuring the amount of 4-methylumbelliferone (4MU), using 4-methylumbelliferyl oleate (4MUO) as substrate. The assay was modified from a previously reported method. In brief, 25 μL of a blank, plant extract vehicle, or a sample solution and 50 μL of 0.5 mM 4MUO in buffer consisting of 13 mM Tris-HCl, 150 mM NaCl, and 1.3 mM CaCl2 (pH 8.0), were mixed in 96-well microtiter plate. Twenty-five microliters of lipase from porcine pancreas (Type II), prepared at 0.5 mg/mL in the same buffer, was then added to start the enzyme reaction. After incubation at room temperature for 30 min, 100 μL of 0.1 M sodium citrate (pH 4.2) was added to stop the reaction. Fluorescence, corresponding to released 4MU, was then measured with excitation and emission wavelengths of 355 and 460 nm, respectively.

[4] = target: T1, lipase from porcine pancreas (Type II); experiment: Kinetic study of lipase inhibition (Lineweaver-Burk and secondary plots); format: biochemical; conditions: for Mode of inhibition of lipase: Lineweaver-Burk plot; for Ki: from secondary plot
Experimental: as §4, §2

[5] = tested on: high-fat-diet (HFD)-induced obesity; parameters: method as in PMID 22312299, PMID 21320266; conditions: mice; by activating AMPK; cited from earlier work

Compound	IC50 [2] [µM]	inhibition at 20 µg/mL [3] [%]	α-Glucosidase % Inhibition (at 20 µg/mL) [2] [%]	further results
C[C@H]1O[C@H](O[C@H]2[C@H](O)[C@@H](O)[C@@H](O[C@H]3[C@H](O)[C@@H](O)C(O)O[C@@H]3CO)O[C@@H]2CO)[C@H](O)[C@@H](O)[C@@H]1N[C@H]1C=C(CO)[C@@H](O)[C@H](O)[C@H]1O (stereo partly shown) [Acarbose, reference compound]	1160 ± 23	–	–	Mode of inhibition of α-glucosidase [1]: competitive; Ki [1]: 167 µM; IC50 ([2]; rounded value): 1200 µM
COc1cc(O)cc2c1C(=O)CC(c1ccc(O)cc1)O2 (stereo not shown) [Compound 15, 4′-7-Dihydroxy-5-methoxyflavanone]	–	44.7 ± 1.7	20.9 ± 2.1	–
COc1cc(O)cc(O)c1C(=O)C1C(CC=C(C)C)C(C)=CCC1c1ccccc1 (stereo not shown) [Compound 4, Isopanduratin A]	7.5 ± 0.6	75.2 ± 1.1	97.8 ± 0.8	Mode of inhibition of lipase [4]: mixed-type; Ki [4]: 5.79 µM; IC50 [3]: 15.1 ± 3.3 µM
COc1cc(O)c(C(=O)[C@@H]2[C@H](CC=C(C)C)C(C)=CC[C@H]2c2ccccc2)c(O)c1 [Compound 3, Panduratin A]	12.7 ± 1.3	72.3 ± 0.1	94.7 ± 0.4	IC50 [3]: 17.1 ± 3.7 µM; Effect on high-fat-diet (HFD)-induced obesity [5]: attenuate high-fat-diet (HFD)-induced obesity
Alpinetin [Compound 11]	–	–	7.0 ± 2.0	Lipase % Inhibition (at 20 µg/mL) ([3]; at 20 µg/mL): 8.0 ± 1.9%
COc1cc(O)cc(O)c1C(=O)CC(c1ccccc1)c1c(O)cc2c(c1O)C(=O)CC(c1ccccc1)O2 (stereo not shown) [Compound 12, iso-rotundaflavanochalcone]	3.4 ± 0.9	67.8 ± 1.3	100.0 ± 0.2	IC50 [3]: 30.1 ± 2.3 µM
COc1cc(O)cc(O)c1C(=O)/C=C/c1ccc(O)cc1 [Compound 14, 4,4′,6′-trihydroxy-2′-methoxychalcone]	–	70.9 ± 2	97.1 ± 0.5	–
CC(C)=CC[C@@H]1C(C)=CC[C@@H](c2ccccc2)[C@@H]1C(=O)c1c(O)cc(O)cc1O [Compound 7, Hydroxypanduratin A]	4.6 ± 0.4	49.3 ± 2.7	98.5 ± 0.4	Mode of inhibition of α-glucosidase [1]: non-competitive; Km [1]: 460 µM; Ki [1]: 4.03 µM
COc1cc(O)c(C(=O)CC(c2ccccc2)c2c(O)cc3c(c2O)C(=O)CC(c2ccccc2)O3)c(O)c1 (stereo not shown) [Compound 9, rotundaflavanochalcone]	2.4 ± 0.4	69.1 ± 1.6	100.0 ± 0.0	Mode of inhibition of lipase [4]: non-competitive; Ki [4]: 3.55 µM; IC50 [3]: 25.8 ± 2.6 µM; Mode of inhibition of α-glucosidase [1]: non-competitive; Km [1]: 470 µM; Ki [1]: 7.19 µM
CCCCCCCCCCC[C@@H](C[C@@H]1OC(=O)[C@H]1CCCCCC)OC(=O)[C@H](CC(C)C)NC=O [Orlistat, reference compound]	–	–	–	Mode of inhibition of lipase [4]: competitive
COc1cc(/C=C/c2ccccc2)oc(=O)c1 [Compound 8, 5,6-Dehydrokawain]	–	33.7 ± 1	9.5 ± 2.5	–
COc1cc(O)c2c(c1)O[C@H](c1ccccc1)CC2=O [Compound 1, Pinostrobin]	–	7.9 ± 0.8	10.0 ± 2.9	–
CC(C)=CCC/C(C)=C/CO [Compound 2, Geraniol]	–	30.6 ± 2	9.6 ± 4.0	–
O=C(CC(c1ccccc1)c1c(O)cc2c(c1O)C(=O)CC(c1ccccc1)O2)c1c(O)cc(O)cc1O (stereo not shown) [Compound 13, de-O-methyl rotundaflavanochalcone]	1.3 ± 0.2	80.5 ± 0.6	100.0 ± 0.1	IC50 [3]: 10.6 ± 1.2 µM
COc1cc(O)cc(O)c1C(=O)/C=C/c1ccccc1 [Compound 6, Cardamonin]	–	7.7 ± 1.9	19.7 ± 0.9	–
O=C1C[C@@H](c2ccccc2)Oc2cc(O)cc(O)c21 [Compound 5, Pinocembrin]	–	3.7 ± 1.3	19.8 ± 0.1	–
O=C(CCc1ccccc1)c1c(O)cc(O)cc1O [Compound 10, 2′,4′,6′-Trihydroxydihydrochalcone]	32 ± 2.2	48.7 ± 3.5	88.1 ± 0.9	–
